From patent publication US9446039B2, “Aminoheteroaryl compounds as MTH1 inhibitors” (CEMM—FORSCHUNGSZENTRUM FÜR MOLEKULARE MEDIZIN GMBH, priority 2012, dated 2016)

Experiments:
Type in all cases: binding
[1] = target: SW480 colon carcinoma cells lysate proteins (Homo sapiens, UniProt P07858); settings: PreyGene CTSB
[2] = target: SW480 colon carcinoma cells lysate proteins (Homo sapiens, UniProt P27708); settings: PreyGene CAD
[3] = target: T1, SW480 colon carcinoma cells lysate proteins (Homo sapiens, UniProt P32119); settings: PreyGene PRDX2
T1 sequence (P32119 1-198): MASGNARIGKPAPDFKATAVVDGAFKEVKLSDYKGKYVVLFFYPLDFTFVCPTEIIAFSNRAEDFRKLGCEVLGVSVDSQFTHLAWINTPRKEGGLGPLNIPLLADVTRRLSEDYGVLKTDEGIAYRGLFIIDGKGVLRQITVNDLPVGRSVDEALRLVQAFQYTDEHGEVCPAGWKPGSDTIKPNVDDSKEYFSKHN

[4] = target: T2, SW480 colon carcinoma cells lysate proteins (Homo sapiens, UniProt P55209); settings: PreyGene NAP1L1
T2 sequence (P55209 1-391): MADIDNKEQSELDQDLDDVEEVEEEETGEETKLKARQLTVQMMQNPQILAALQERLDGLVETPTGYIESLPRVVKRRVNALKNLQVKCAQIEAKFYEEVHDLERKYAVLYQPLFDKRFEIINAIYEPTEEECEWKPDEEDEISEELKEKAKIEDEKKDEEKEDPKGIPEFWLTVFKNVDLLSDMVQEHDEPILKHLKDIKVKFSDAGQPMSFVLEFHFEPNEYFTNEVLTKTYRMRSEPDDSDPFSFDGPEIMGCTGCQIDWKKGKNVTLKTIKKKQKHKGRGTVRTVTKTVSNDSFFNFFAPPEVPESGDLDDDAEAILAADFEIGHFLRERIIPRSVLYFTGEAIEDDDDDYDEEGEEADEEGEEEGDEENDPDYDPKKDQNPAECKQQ

[5] = target: T3, SW480 colon carcinoma cells lysate proteins (Homo sapiens, UniProt P68402); settings: PreyGene PAFAH1B2; SW480 cells
T3 sequence (P68402 1-229): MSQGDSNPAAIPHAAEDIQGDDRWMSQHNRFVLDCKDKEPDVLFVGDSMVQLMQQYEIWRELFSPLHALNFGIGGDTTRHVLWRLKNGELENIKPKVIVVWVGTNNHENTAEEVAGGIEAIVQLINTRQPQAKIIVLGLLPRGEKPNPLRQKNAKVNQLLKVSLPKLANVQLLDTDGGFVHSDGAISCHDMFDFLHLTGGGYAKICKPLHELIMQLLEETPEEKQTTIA

[6] = target: SW480 colon carcinoma cells lysate proteins (Homo sapiens, UniProt Q02878); settings: PreyGene RPL6; SW480 cells
[7] = target: SW480 colon carcinoma cells lysate proteins (Homo sapiens, UniProt Q07812); settings: PreyGene BAX; SW480 cells
[8] = target: T4, SW480 colon carcinoma cells lysate proteins (Homo sapiens, UniProt Q14498); settings: PreyGene RBM39
T4 sequence (Q14498 1-530): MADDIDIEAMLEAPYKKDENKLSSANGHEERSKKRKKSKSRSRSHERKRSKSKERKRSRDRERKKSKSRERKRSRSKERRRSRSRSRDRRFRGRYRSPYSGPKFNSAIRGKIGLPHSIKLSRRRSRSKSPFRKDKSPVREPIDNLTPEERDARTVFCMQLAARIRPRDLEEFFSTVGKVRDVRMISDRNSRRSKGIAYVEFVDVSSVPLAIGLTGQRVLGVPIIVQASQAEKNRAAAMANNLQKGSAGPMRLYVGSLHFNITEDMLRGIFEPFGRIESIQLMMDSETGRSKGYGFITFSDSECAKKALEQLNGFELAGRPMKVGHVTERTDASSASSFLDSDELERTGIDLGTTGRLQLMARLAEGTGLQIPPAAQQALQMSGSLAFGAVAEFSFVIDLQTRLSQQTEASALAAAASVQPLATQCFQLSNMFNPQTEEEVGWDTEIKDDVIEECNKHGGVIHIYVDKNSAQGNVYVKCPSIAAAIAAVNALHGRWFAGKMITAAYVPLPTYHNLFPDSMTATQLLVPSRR

[9] = target: SW480 colon carcinoma cells lysate proteins (Homo sapiens, UniProt Q16658); settings: PreyGene FSCN1
[10] = target: SW480 colon carcinoma cells lysate proteins (Homo sapiens, UniProt Q7Z406); settings: PreyGene MYH14; SW480 cells
[11] = target: SW480 colon carcinoma cells lysate proteins (Homo sapiens, UniProt Q9Y230); settings: PreyGene RUVBL2
Chain of SW480 colon carcinoma cells lysate proteins (Homo sapiens, UniProt Q9Y230) (Q9Y230 whole entry): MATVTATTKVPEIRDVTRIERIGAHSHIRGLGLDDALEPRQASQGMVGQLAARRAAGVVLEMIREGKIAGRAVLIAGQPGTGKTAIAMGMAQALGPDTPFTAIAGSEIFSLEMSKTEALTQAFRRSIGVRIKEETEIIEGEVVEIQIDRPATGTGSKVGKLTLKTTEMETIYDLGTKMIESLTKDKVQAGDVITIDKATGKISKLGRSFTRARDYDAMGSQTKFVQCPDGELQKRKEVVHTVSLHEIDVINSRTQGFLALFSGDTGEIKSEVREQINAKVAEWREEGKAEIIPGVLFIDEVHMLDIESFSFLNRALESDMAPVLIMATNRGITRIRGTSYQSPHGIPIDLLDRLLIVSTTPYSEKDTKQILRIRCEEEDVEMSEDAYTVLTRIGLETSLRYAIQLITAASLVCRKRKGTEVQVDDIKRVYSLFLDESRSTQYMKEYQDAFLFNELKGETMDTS

Chain of SW480 colon carcinoma cells lysate proteins (Homo sapiens, UniProt Q7Z406) (Q7Z406 whole entry): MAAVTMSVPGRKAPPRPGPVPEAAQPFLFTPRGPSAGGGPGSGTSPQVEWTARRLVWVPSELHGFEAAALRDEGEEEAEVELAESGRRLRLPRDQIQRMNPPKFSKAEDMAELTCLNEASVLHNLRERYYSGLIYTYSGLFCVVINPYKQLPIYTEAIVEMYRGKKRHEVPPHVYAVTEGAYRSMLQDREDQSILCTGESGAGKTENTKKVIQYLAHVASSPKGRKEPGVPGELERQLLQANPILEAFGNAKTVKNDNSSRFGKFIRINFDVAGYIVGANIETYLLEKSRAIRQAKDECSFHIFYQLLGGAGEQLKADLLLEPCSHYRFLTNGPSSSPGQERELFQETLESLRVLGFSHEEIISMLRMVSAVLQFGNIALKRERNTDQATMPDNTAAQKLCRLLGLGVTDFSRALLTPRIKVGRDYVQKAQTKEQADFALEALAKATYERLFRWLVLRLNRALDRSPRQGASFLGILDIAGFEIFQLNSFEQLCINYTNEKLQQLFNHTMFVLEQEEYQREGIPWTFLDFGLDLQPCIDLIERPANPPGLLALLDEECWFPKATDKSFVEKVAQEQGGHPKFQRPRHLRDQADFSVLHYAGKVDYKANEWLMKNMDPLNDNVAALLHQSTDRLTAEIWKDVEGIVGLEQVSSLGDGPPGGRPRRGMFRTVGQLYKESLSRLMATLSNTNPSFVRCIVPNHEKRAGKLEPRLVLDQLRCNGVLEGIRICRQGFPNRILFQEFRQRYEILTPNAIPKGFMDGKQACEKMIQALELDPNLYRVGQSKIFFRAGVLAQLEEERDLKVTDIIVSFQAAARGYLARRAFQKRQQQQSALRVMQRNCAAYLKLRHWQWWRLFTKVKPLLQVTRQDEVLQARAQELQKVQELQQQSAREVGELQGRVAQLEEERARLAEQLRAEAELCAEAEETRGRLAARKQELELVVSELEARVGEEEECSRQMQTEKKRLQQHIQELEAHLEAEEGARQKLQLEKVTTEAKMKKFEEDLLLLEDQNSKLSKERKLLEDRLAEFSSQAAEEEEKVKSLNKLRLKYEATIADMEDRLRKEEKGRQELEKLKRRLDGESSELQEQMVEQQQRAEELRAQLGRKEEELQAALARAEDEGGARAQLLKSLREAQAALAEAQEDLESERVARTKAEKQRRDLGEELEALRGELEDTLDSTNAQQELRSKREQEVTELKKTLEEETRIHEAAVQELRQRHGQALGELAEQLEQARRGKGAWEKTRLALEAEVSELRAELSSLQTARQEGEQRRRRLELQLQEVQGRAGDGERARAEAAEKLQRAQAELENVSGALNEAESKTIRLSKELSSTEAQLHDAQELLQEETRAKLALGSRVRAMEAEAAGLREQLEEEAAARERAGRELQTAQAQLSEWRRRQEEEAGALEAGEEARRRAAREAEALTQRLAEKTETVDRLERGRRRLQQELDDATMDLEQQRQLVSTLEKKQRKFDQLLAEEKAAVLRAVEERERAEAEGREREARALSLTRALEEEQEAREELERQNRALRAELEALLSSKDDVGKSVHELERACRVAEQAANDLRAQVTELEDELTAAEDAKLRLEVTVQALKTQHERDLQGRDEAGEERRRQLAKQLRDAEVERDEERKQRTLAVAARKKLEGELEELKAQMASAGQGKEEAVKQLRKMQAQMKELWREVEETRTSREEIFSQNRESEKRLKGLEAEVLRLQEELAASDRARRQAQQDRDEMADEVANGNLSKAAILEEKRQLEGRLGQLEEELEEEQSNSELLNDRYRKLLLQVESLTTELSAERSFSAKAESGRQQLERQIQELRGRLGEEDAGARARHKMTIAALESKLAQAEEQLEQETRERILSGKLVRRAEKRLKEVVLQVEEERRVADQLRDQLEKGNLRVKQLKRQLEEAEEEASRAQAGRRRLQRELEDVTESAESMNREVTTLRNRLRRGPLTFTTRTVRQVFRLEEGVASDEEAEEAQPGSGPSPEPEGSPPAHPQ
Chain of SW480 colon carcinoma cells lysate proteins (Homo sapiens, UniProt P27708) (P27708 whole entry): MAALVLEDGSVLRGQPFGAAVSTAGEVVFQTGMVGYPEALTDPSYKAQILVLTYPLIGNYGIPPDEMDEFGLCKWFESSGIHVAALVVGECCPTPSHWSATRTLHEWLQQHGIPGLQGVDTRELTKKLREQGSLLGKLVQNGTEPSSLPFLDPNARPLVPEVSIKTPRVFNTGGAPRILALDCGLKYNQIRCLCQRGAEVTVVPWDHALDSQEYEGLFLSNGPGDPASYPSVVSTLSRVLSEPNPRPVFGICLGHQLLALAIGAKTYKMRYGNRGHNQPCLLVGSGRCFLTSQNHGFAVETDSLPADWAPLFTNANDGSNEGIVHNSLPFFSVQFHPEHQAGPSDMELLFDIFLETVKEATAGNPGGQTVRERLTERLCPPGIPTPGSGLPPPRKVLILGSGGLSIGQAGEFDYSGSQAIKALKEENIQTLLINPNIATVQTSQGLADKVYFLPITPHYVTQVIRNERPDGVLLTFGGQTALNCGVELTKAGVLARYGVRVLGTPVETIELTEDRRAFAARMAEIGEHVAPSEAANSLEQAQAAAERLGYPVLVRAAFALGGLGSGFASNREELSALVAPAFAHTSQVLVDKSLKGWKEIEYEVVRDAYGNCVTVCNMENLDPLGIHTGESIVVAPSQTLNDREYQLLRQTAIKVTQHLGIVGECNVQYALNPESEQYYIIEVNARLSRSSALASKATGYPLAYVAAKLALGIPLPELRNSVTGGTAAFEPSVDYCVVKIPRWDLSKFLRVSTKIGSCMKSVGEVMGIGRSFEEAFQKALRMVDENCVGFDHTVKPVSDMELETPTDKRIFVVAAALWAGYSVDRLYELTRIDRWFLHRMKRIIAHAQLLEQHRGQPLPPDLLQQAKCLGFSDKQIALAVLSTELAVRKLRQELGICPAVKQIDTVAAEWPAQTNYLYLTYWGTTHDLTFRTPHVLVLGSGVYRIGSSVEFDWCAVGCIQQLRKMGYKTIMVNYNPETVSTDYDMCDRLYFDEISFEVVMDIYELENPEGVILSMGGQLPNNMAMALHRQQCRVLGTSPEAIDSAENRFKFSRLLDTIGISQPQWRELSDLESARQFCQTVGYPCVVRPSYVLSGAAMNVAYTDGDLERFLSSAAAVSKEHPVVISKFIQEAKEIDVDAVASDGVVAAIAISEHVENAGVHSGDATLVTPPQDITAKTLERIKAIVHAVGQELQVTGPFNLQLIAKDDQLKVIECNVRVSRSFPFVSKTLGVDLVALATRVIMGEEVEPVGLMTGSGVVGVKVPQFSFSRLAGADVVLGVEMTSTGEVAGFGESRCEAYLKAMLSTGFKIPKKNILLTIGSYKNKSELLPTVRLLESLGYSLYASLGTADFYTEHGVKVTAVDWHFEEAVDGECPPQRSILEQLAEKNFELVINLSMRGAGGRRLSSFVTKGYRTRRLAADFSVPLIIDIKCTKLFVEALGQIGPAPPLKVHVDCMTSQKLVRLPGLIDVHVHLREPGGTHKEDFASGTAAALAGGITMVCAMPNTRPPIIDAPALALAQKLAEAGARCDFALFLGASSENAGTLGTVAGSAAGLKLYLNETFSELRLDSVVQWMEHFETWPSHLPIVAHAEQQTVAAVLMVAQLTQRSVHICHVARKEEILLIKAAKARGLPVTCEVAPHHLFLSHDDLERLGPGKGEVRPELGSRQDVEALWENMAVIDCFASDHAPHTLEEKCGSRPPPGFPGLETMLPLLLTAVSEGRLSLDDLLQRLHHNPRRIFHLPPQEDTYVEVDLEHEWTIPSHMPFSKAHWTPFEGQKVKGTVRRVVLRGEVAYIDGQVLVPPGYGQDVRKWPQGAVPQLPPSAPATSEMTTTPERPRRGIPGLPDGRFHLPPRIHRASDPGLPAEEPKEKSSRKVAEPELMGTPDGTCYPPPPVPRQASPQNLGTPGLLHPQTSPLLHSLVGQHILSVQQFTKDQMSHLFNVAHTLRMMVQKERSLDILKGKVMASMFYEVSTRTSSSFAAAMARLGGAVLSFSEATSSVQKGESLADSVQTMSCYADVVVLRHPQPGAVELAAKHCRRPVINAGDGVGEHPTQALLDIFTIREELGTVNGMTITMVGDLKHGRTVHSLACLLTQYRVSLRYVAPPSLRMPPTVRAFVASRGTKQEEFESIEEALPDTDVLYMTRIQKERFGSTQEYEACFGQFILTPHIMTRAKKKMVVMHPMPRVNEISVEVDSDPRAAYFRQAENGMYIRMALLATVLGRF
Chain of SW480 colon carcinoma cells lysate proteins (Homo sapiens, UniProt Q07812) (Q07812 whole entry): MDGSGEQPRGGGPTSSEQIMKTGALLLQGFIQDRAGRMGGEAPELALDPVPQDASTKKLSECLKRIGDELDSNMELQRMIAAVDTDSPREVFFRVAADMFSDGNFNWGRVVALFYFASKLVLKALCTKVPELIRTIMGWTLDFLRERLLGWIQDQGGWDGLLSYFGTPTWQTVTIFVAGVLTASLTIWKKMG

C[C@H](Oc1cc(-c2cnn(C3CCNCC3)c2)cnc1N)c1c(Cl)ccc(F)c1Cl [(5)-crizotinib]
0.4297: AvgP [11]
4: SC.Exp. 1-1 [3] | SC.Exp. 1-2 [3] | SC.Exp. 2-1 [6] | SC.Exp. Sum [7] | SC.Exp. 1-1 [8]
28: SC.Exp. Sum [6]
6: SC.Exp. 2-2 [6] | Sum (SC.Exp.) [11]
1: SC.Exp. 1-1 [4] | SC.Exp. 1-1 [5] | SC.Exp. 1-2 [5] | SC.Exp. 1-1 [7] | SC.Exp. 1-2 [7] | SC.Exp. 2-1 [7] | SC.Exp. 2-2 [7] | SC.Exp. 1-1 [10] | SC.Exp. 1-2 [10]
0.2244: AvgP [4]
5: Sum (SC.Exp.) [2] | Sum (SC.Exp.) [9]
3: SC.Exp. 1-2 [2] | Sum (SC.Exp.) [4] | SC.Exp. 1-2 [8] | SC.Exp. 1-2 [9] | SC.Exp. 1-1 [11] | SC.Exp. 1-2 [11]
0.4214: AvgP [8]
0.3255: AvgP [3]
0.4044: AvgP [9]
7: SC.Exp. 1-1 [6] | Sum (SC.Exp.) [8]
0.1845: AvgP [1]
8: Sum (SC.Exp.) [3]
11: SC.Exp. 1-2 [6]
2: SC.Exp. 1-2 [1] | Sum (SC.Exp.) [1] | SC.Exp. 1-1 [2] | SC.Exp. 1-2 [4] | SC.Exp. Sum [5] | SC.Exp. 1-1 [9] | SC.Exp. Sum [10]
0.3483: AvgP [2]
0: SC.Exp. 1-1 [1] | SC.Exp. 2-1 [1] | SC.Exp. 2-2 [1] | SC.Exp. 2-1 [2] | SC.Exp. 2-2 [2] | SC.Exp. 2-1 [3] | SC.Exp. 2-2 [3] | SC.Exp. 2-1 [4] | SC.Exp. 2-2 [4] | AvgP [5] | SC.Exp. 2-1 [5] | SC.Exp. 2-2 [5] | AvgP [6] | AvgP [7] | SC.Exp. 2-1 [8] | SC.Exp. 2-2 [8] | SC.Exp. 2-1 [9] | SC.Exp. 2-2 [9] | AvgP [10] | SC.Exp. 2-1 [10] | SC.Exp. 2-2 [10] | SC.Exp. 2-1 [11] | SC.Exp. 2-2 [11]
